Assay results as given in US3956274A, “New compound 6'-deoxy-'-substituted or unsubstituted amino-lividomycins and the production thereof” (Zaidan Hojin Biseibutsu Kagaku Kenkyu Kai, priority 1973, dated 1976).
≈ marks a conversion by molar mass, not a printed value. Read-outs that look alike come from different tables or passages of the source.

Columns and labels:
[1] = test system: Bacillus subtilis NRRL B-558; assay: MIC, standard serial dilution method; type: cell-based; conditions: Bacillus subtilis, NRRLB558; B. subtilis NRRL B-558; nutrient agar, 37°C, 18 hours; read-out: Minimal inhibitory concentration
Protocol: (§1) The minimum inhibitory concentrations (mcg/ml) of 6'-amino-6'-deoxylividomycin B, 6'-deoxy-6'-methylaminolividomycin B and 6'-deoxy-6'-(2-hydroxyethylamino) lividomycin B against various microorganisms were determined according to a standard serial dilution method using nutrient agar incubation medium at 37°C, the estimation being effected after 18 hours incubation except for Mycobacterium smegmalis ATCC 607, in which the estimation being effected after 48 hours incubation. The minimum inhibitory concentrations (mcg/ml) of neomycin and lividomycin B were also determined in the same manner they also for comparison.

[2] = test system: Escherichia coli K-12 J 5 R 11-2; assay: MIC, standard serial dilution method; type: cell-based; conditions: Escherichia coli, K12J5R112; E. coli K-12 J 5 R 11-2; nutrient agar, 37°C, 18 hours; read-out: Minimal inhibitory concentration
Protocol: as §1

[3] = test system: Escherichia coli K-12 LA 290 R 56; assay: MIC, standard serial dilution method; type: cell-based; conditions: Escherichia coli, 18 h, read-out: Minimal inhibitory concentration
Protocol: as §1

[4] = test system: Escherichia coli K-12 LA 290 R 64; assay: MIC, standard serial dilution method; type: cell-based; conditions: Escherichia coli; E. coli K-12 LA 290 R 64; nutrient agar, 37°C, 18 hours; read-out: Minimal inhibitory concentration
Protocol: as §1

[5] = test system: Escherichia coli K-12 ML 1410 R 81; assay: MIC, standard serial dilution method; type: cell-based; conditions: Escherichia coli, 18 h, read-out: Minimal inhibitory concentration
Protocol: as §1

[6] = test system: Escherichia coli K-12 ML 1410; assay: MIC, standard serial dilution method; type: cell-based; conditions: Escherichia coli, read-out: Minimal inhibitory concentration
Protocol: as §1

[7] = test system: Escherichia coli K-12 ML 1630; assay: MIC, standard serial dilution method; type: cell-based; conditions: Escherichia coli, K12ML1630; E. coli K-12 ML 1630; nutrient agar, 37°C, 18 hours; read-out: Minimal inhibitory concentration
Protocol: as §1

[8] = test system: Escherichia coli K-12 R-5; assay: MIC, standard serial dilution method; type: cell-based; conditions: Escherichia coli, K12R5; E. coli K-12 R-5; nutrient agar, 37°C, 18 hours; read-out: Minimal inhibitory concentration
Protocol: as §1

[9] = test system: Escherichia coli K-12 W 677; assay: MIC, standard serial dilution method; type: cell-based; conditions: Escherichia coli, read-out: Minimal inhibitory concentration
Protocol: as §1

Escherichia coli K-12 = assay: MIC, standard serial dilution method; type: cell-based; conditions: Escherichia coli, read-out: Minimal inhibitory concentration
Protocol: as §1

Escherichia coli NIHJ = assay: MIC, standard serial dilution method; type: cell-based; conditions: Escherichia coli, read-out: Minimal inhibitory concentration
Protocol: as §1

[10] = test system: Klebsiella pneumoniae PCI 602; assay: MIC, standard serial dilution method; type: cell-based; conditions: Klebsiella pneumoniae, PCI602; K. pneumoniae PCI 602; nutrient agar, 37°C, 18 hours; read-out: Minimal inhibitory concentration
Protocol: as §1

[11] = test system: Klebsiella pneumoniae type 22 No. 3038; assay: MIC, standard serial dilution method; type: cell-based; conditions: Klebsiella pneumoniae, read-out: Minimal inhibitory concentration
Protocol: as §1

[12] = test system: Mycobacterium smegmatis ATCC 607; assay: MIC, standard serial dilution method; type: cell-based; conditions: Mycolicibacterium smegmatis, ATCC607, nutrient agar, 37°C, 48 hours, read-out: Minimal inhibitory concentration
Protocol: as §1

Proteus rettgeri GN 311 = assay: MIC, standard serial dilution method; type: cell-based; conditions: Providencia rettgeri, GN311, nutrient agar, 37°C, 18 hours, read-out: Minimal inhibitory concentration
Protocol: as §1

Proteus rettgeri GN 466 = assay: MIC, standard serial dilution method; type: cell-based; conditions: Providencia rettgeri, read-out: Minimal inhibitory concentration
Protocol: as §1

[13] = test system: Pseudomonas aeruginosa 99; assay: MIC, standard serial dilution method; type: cell-based; conditions: read-out: Minimal inhibitory concentration
Protocol: as §1

[14] = test system: Pseudomonas aeruginosa A 3; assay: MIC, standard serial dilution method; type: cell-based; conditions: Pseudomonas aeruginosa, A3, 18 h, read-out: Minimal inhibitory concentration
Protocol: as §1

[15] = test system: Pseudomonas aeruginosa No.12; assay: MIC, standard serial dilution method; type: cell-based; conditions: Pseudomonas aeruginosa; P. aeruginosa No.12; nutrient agar, 37°C, 18 hours; read-out: Minimal inhibitory concentration
Protocol: as §1

[16] = test system: Pseudomonas aeruginosa TI-13-1; assay: MIC, standard serial dilution method; type: cell-based; conditions: Pseudomonas aeruginosa, TI131; P. aeruginosa TI-13-1; nutrient agar, 37°C, 18 hours; read-out: Minimal inhibitory concentration
Protocol: as §1

Salmonella typhosa T-63 = assay: MIC, standard serial dilution method; type: cell-based; conditions: Salmonella enterica, TYPHOSA, 18 h, read-out: Minimal inhibitory concentration
Protocol: as §1

Sarcina lutea PCI 1001 = assay: MIC, standard serial dilution method; type: cell-based; conditions: Micrococcus luteus, PCI1001, nutrient agar, 37°C, 18 hours, read-out: Minimal inhibitory concentration
Protocol: as §1

[17] = test system: Staphylococcus aureus FDA 209 P; assay: MIC, standard serial dilution method; type: cell-based; conditions: Staphylococcus aureus, FDA209; S. aureus FDA 209 P; nutrient agar, 37°C, 18 hours; read-out: Minimal inhibitory concentration
Protocol: as §1

[18] = test system: Escherichia coli K-12 JR 66/W 677; assay: MIC, standard serial dilution method; type: cell-based; conditions: Escherichia coli, 18 h, read-out: Minimal inhibitory concentration
Protocol: as §1
(§2) In the above table, the mark * denotes the strain is a drug-resistant
(§3) strain of patient-origin.

[19] = test system: Escherichia coli K-12 LA 290 R 55; assay: MIC, standard serial dilution method; type: cell-based; conditions: Escherichia coli, 18 h, read-out: Minimal inhibitory concentration
Protocol: as §1, §2, §3

[20] = test system: Escherichia coli K-12 ML 1629; assay: MIC, standard serial dilution method; type: cell-based; conditions: Escherichia coli, K12ML1629; E. coli K-12 ML 1629, drug-resistant strain of patient-origin; nutrient agar, 37°C, 18 hours; read-out: Minimal inhibitory concentration
Protocol: as §1, §2, §3

[21] = test system: Pseudomonas aeruginosa GN 315; assay: MIC, standard serial dilution method; type: cell-based; conditions: Pseudomonas aeruginosa, read-out: Minimal inhibitory concentration
Protocol: as §1, §2, §3

[22] = test system: kanamycin-resistant strains; conditions: in words; cited from earlier work
[23] = E. coli NIHJ, nutrient agar, 37°C, 18 hours
[24] = Pseudomonas aeruginosa, P. aeruginosa 99, nutrient agar, 37°C, 18 hours
[25] = GN315, P. aeruginosa GN 315, drug-resistant strain of patient-origin, nutrient agar, 37°C, 18 hours
[26] = K12W677, E. coli K-12 W 677, nutrient agar, 37°C, 18 hours
[27] = K12, E. coli K-12, nutrient agar, 37°C, 18 hours
[28] = GN466, Proteus rettgeri GN 466, nutrient agar, 37°C, 18 hours

| Structure (SMILES) | MIC [1] [µg/mL] | MIC [2] [µg/mL] | MIC [3] [µg/mL] | MIC [4] [µg/mL] | MIC [5] [µg/mL] | MIC [7] [µg/mL] | MIC [8] [µg/mL] | MIC [10] [µg/mL] | MIC [12] [µg/mL] | MIC (Proteus rettgeri GN 311) [µg/mL] | MIC [14] [µg/mL] | MIC [15] [µg/mL] | MIC [16] [µg/mL] | MIC (Salmonella typhosa T-63) [µg/mL] | MIC (Sarcina lutea PCI 1001) [µg/mL] | MIC [17] [µg/mL] | MIC [18] [µg/mL] | MIC [19] [µg/mL] | MIC [20] [µg/mL] | activity against kanamycin-resistant strains [22] | also measured |
| --- | --- | --- | --- | --- | --- | --- | --- | --- | --- | --- | --- | --- | --- | --- | --- | --- | --- | --- | --- | --- | --- |
| NC[C@@H]1O[C@H](O[C@H]2[C@@H](O)[C@H](O[C@@H]3[C@@H](O)[C@H](N)C[C@H](N)[C@H]3O[C@H]3O[C@H](CNCCO)[C@@H](O)C[C@H]3N)O[C@@H]2CO)[C@H](N)[C@@H](O)[C@@H]1O [HALVB, 6'-deoxy-6'-(2-hydroxyethylamino) lividomycin B] | < 0.2 | > 100 | 0.78 (≈ 1.21 µM) | 1.56 (≈ 2.43 µM) | > 100 | > 100 | 1.56 (≈ 2.43 µM) | 0.78 (≈ 1.21 µM) | < 0.2 | 50 (≈ 77.8 µM) | 6.25 (≈ 9.72 µM) | 0.78 (≈ 1.21 µM) | > 100 | 1.56 (≈ 2.43 µM) | 25 (≈ 38.9 µM) | 0.39 (≈ 0.607 µM) | 6.25 (≈ 9.72 µM) | 1.56 (≈ 2.43 µM) | > 100 | – | MIC ([6]; K12ML1410, E. coli K-12 ML 1410, nutrient agar, 37°C, 18 hours): 3.12 µg/mL (≈ 4.85 µM); MIC ([9]; K12W677, 18 h): 1.56 µg/mL (≈ 2.43 µM); MIC (Escherichia coli K-12; K12, 18 h): 1.56 µg/mL (≈ 2.43 µM); MIC (Escherichia coli NIHJ; [23]): 3.12 µg/mL (≈ 4.85 µM); MIC ([11]; TYPE22NO.3038, K. pneumoniae type 22 No. 3038, nutrient agar, 37°C, 18 hours): 3.12 µg/mL (≈ 4.85 µM); MIC (Proteus rettgeri GN 466; GN466, 18 h): 6.25 µg/mL (≈ 9.72 µM); MIC [13, 24]: 25 µg/mL (≈ 38.9 µM); MIC [21, 25]: 12.5 µg/mL (≈ 19.4 µM) |
| NCC1OC(OC2C(N)CC(N)C(OC3OC(CO)C(O)C(N)C3O)C2O)C(O)CC1O (centres unmarked) [3'-Deoxykananmycin, 3'-deoxykanamycin] | – | – | – | – | – | – | – | – | – | – | – | – | – | – | – | – | – | – | – | actually effective | – |
| NCC1CCC(N)C(OC2C(N)CC(N)C(OC3OC(CO)C(O)C(N)C3O)C2O)O1 (centres unmarked) [3', 4'-dideoxykanamycin B] | – | – | – | – | – | – | – | – | – | – | – | – | – | – | – | – | – | – | – | actually effective | – |
| CNC[C@H]1O[C@H](O[C@H]2[C@H](O[C@@H]3O[C@H](CO)[C@@H](O[C@H]4O[C@@H](CN)[C@@H](O)[C@H](O)[C@H]4N)[C@H]3O)[C@@H](O)[C@H](N)C[C@@H]2N)[C@H](N)C[C@@H]1O [MALVB, 6'-deoxy-6'-methylaminolividomycin B] | < 0.2 | 100 (≈ 163 µM) | 1.56 (≈ 2.55 µM) | 0.78 (≈ 1.27 µM) | > 100 | > 100 | 1.56 (≈ 2.55 µM) | 0.78 (≈ 1.27 µM) | < 0.2 | 25 (≈ 40.8 µM) | 3.12 (≈ 5.09 µM) | 0.78 (≈ 1.27 µM) | > 100 | 0.78 (≈ 1.27 µM) | 6.25 (≈ 10.2 µM) | < 0.2 | 3.12 (≈ 5.09 µM) | 1.56 (≈ 2.55 µM) | > 100 | – | MIC ([6]; K12ML1410, 18 h): 3.12 µg/mL (≈ 5.09 µM); MIC [9, 26]: 0.78 µg/mL (≈ 1.27 µM); MIC (Escherichia coli K-12; [27]): 0.78 µg/mL (≈ 1.27 µM); MIC (Escherichia coli NIHJ; 18 h): 3.12 µg/mL (≈ 5.09 µM); MIC ([11]; TYPE22NO.3038, 18 h): 1.56 µg/mL (≈ 2.55 µM); MIC (Proteus rettgeri GN 466; [28]): 12.5 µg/mL (≈ 20.4 µM); MIC [13, 24]: 25 µg/mL (≈ 40.8 µM); MIC ([21]; GN315, 18 h): 3.12 µg/mL (≈ 5.09 µM) |
| NC[C@@H]1O[C@H](O[C@H]2[C@@H](O)[C@H](O[C@@H]3[C@@H](O)[C@H](N)C[C@H](N)[C@H]3O[C@H]3O[C@H](CN)[C@@H](O)C[C@H]3N)O[C@@H]2CO)[C@H](N)[C@@H](O)[C@@H]1O [ALVB, 6'-amino-6'-deoxylividomycin B] | < 0.2 | 25 (≈ 41.8 µM) | 0.39 (≈ 0.651 µM) | – | 100 (≈ 167 µM) | 50 (≈ 83.5 µM) | 0.39 (≈ 0.651 µM) | 0.78 (≈ 1.3 µM) | < 0.2 | 25 (≈ 41.8 µM) | 1.56 (≈ 2.61 µM) | 0.78 (≈ 1.3 µM) | 100 (≈ 167 µM) | 0.39 (≈ 0.651 µM) | 0.78 (≈ 1.3 µM) | < 0.2 | 1.56 (≈ 2.61 µM) | 1.56 (≈ 2.61 µM) | 50 (≈ 83.5 µM) | – | MIC ([6]; K12ML1410, 18 h): 1.56 µg/mL (≈ 2.61 µM); MIC [9, 26]: 0.78 µg/mL (≈ 1.3 µM); MIC (Escherichia coli K-12; [27]): 0.78 µg/mL (≈ 1.3 µM); MIC (Escherichia coli NIHJ; [23]): 0.78 µg/mL (≈ 1.3 µM); MIC ([11]; TYPE22NO.3038, 18 h): 1.56 µg/mL (≈ 2.61 µM); MIC (Proteus rettgeri GN 466; [28]): 3.12 µg/mL (≈ 5.21 µM); MIC ([13]; Pseudomonas aeruginosa, 99, 18 h): 1.56 µg/mL (≈ 2.61 µM); MIC [21, 25]: 25 µg/mL (≈ 41.8 µM) |
| NC[C@@H]1CC[C@@H](N)[C@@H](O[C@H]2[C@H](O)[C@@H](O)[C@H](N)C[C@@H]2N)O1 [3', 4'-dideoxyneamine] | – | – | – | – | – | – | – | – | – | – | – | – | – | – | – | – | – | – | – | actually effective | – |
